Measured values from patent EP3294317B1, “ENHANCED ANTIBIOTIC COMPOSITION” (Universitat Autònoma de Barcelona, priority 2015, dated 2016).

What was measured:
[1] = system: A. baumannii 6963; test: Colistin broth microdilution MIC with potentiator compounds, resistant clinical isolates (Example 3); format: cell-based, Acinetobacter baumannii; conditions: MIC in the presence of 1.0% DMSO / MIC in the presence of 0.1 mM compound and 1.0% DMSO, positive = increased susceptibility, 1 = no effect
Procedure: (§1) The potentiator effect of the compound of the invention and other compounds disclosed herein was tested using colistin sulfate as antibiotic and in combination with the enhancer compounds in front of resistant clinical isolates.
(§2) Tests were performed to determine the potentiator effect of the compound of the invention and other compounds disclosed herein with multidrug-resistant S. maltophilia and A. baumannii clinical strains as shown in Table 5: TABLE 5
(§3) For this experiment the potentiator compound was added to a colistin broth microdilution assay at a final concentration of 0.1mM. MICs were determined as described in the Example 1.
(§4) Colistin minimal inhibitory concentration (MIC), expressed in µg/mL, and the fold increase in bacterial susceptibility to colistin when combined with the potentiator compound (expressed as MIC in the presence of 1.0% DMSO / MIC in the presence of 0.1 mM of each potentiator compound and 1.0% DMSO) are shown in Table 6: […]

[2] = system: A. baumannii 6799; test: as above; format: cell-based, Acinetobacter baumannii; conditions: MIC in the presence of 1.0% DMSO / MIC in the presence of 0.1 mM compound and 1.0% DMSO, positive = increased susceptibility, 1 = no effect
Procedure: as §1, §2, §3, §4

[3] = system: Stenotrophomonas maltophilia ATCC 13637; test: Colistin broth microdilution MIC with potentiator compounds (Example 1); format: cell-based; conditions: S. maltophilia ATCC 13637; MIC in the presence of 1.0% DMSO / MIC in the presence of 0.1 mM potentiator compound and 1.0% DMSO; positive = increased, negative = decreased susceptibility, 1 = no effect
[4] = system: Enterobacter aerogenes ATCC 13048; test: as above; format: cell-based; conditions: E. aerogenes ATCC 13048; MIC in the presence of 1.0% DMSO / MIC in the presence of 0.1 mM potentiator compound and 1.0% DMSO; positive = increased, negative = decreased susceptibility, 1 = no effect
[5] = system: A. baumannii 6963; test: Broth microdilution MIC of other antibiotics with potentiator compounds, clinical isolates (Example 4); format: cell-based, Acinetobacter baumannii; conditions: any of ciprofloxacin, amikacin, levofloxacin, imipenem, TMP/SMX (1:19), 0.1 mM compound, 1.0% DMSO, 'none' = no antibiotic potentiated
Procedure: (§5) Following the procedure of Example 3, ciprofloxacin, amikacin, levofloxacin, imipenem and the combination trimethoprim/sulfamethoxasole (1:19) were tested. All were purchased from Sigma-Aldrich Co.
(§6) Minimal inhibitory concentration (MIC) of the antibiotic or the test combinations were determined by the broth microdilution method.
(§7) Antibiotic stock solutions were prepared according to CLSI recommendations and sterilizing by passage through 0.20 µm filters.
(§8) Antimicrobial susceptibility testing of these isolates was performed using the broth microdilution (BMD) method, according to CLSI guidelines.
(§9) The fold increase in bacterial susceptibility to antibiotics when combined with the potentiator compound (expressed as MIC in the presence of 1.0% DMSO / MIC in the presence of 0.1 mM of each potentiator compound and 1.0% DMSO) are shown in Table 7: […]

[6] = system: A. baumannii 6799; test: as above; format: cell-based, Acinetobacter baumannii; conditions: for Fold increase in bacterial susceptibility to TMP/SMX: Trimethoprim:sulfamethoxazole 1:19, MIC in 1.0% DMSO / MIC with 0.1 mM compound and 1.0% DMSO
Procedure: as §5, §6, §7, §8, §9

[7] = system: S. maltophilia 257; test: Colistin broth microdilution MIC with potentiator compounds, resistant clinical isolates (Example 3); format: cell-based, Stenotrophomonas maltophilia; conditions: MIC in the presence of 1.0% DMSO / MIC in the presence of 0.1 mM compound and 1.0% DMSO, positive = increased susceptibility, 1 = no effect
Procedure: as §1, §2, §3, §4

[8] = system: S. maltophilia M30; test: as above; format: cell-based, Stenotrophomonas maltophilia; conditions: MIC in the presence of 1.0% DMSO / MIC in the presence of 0.1 mM compound and 1.0% DMSO, positive = increased susceptibility, 1 = no effect
Procedure: as §1, §2, §3, §4

[9] = system: Escherichia coli ATCC 25922; test: Colistin broth microdilution MIC with potentiator compounds (Example 1); format: cell-based; conditions: E. coli ATCC 25922; MIC in the presence of 1.0% DMSO / MIC in the presence of 0.1 mM potentiator compound and 1.0% DMSO; positive = increased, negative = decreased susceptibility, 1 = no effect
[10] = system: Salmonella enterica subsp. enterica ATCC 14028; test: as above; format: cell-based; conditions: S. enterica ATCC 14028; MIC in the presence of 1.0% DMSO / MIC in the presence of 0.1 mM potentiator compound and 1.0% DMSO; positive = increased, negative = decreased susceptibility, 1 = no effect
[11] = system: P. aeruginosa ATCC 27853; test: Broth microdilution MIC of other antibiotics with potentiator compounds (Example 2); format: cell-based, Pseudomonas aeruginosa; conditions: for Fold increase in bacterial susceptibility to antibiotic indicated: any of ciprofloxacin, amikacin, levofloxacin, tigecycline, imipenem, TMP/SMX (1:19), 0.1 mM potentiator, 1.0% DMSO, 'none' = no antibiotic potentiated
Procedure: (§10) Following the procedure of Example 1, ciprofloxacin, amikacin, levofloxacin, tigecycline, imipenem and the combination trimethoprim/sulfamethoxasole (1:19) were tested. All were purchased from Sigma-Aldrich Co.
as §6, §7, §8
(§11) The fold increase in bacterial susceptibility to antibiotics when combined with the potentiator compound (expressed as MIC in the presence of 1.0% DMSO / MIC in the presence of 0.1 mM of each potentiator compound and 1.0% DMSO) are shown in Table 4: […]

[12] = system: S. maltophilia 257; test: Broth microdilution MIC of other antibiotics with potentiator compounds, clinical isolates (Example 4); format: cell-based, Stenotrophomonas maltophilia; conditions: any of ciprofloxacin, amikacin, levofloxacin, imipenem, TMP/SMX (1:19), 0.1 mM compound, 1.0% DMSO, 'none' = no antibiotic potentiated
Procedure: as §5, §6, §7, §8, §9

[13] = system: Pseudomonas aeruginosa ATCC 27853; test: Colistin broth microdilution MIC with potentiator compounds (Example 1); format: cell-based; conditions: P. aeruginosa ATCC 27853; MIC in the presence of 1.0% DMSO / MIC in the presence of 0.1 mM potentiator compound and 1.0% DMSO; positive = increased, negative = decreased susceptibility, 1 = no effect
[14] = system: Acinetobacter baumannii ATCC 15308; test: as above; format: cell-based; conditions: A. baumannii ATCC 15308; MIC in the presence of 1.0% DMSO / MIC in the presence of 0.1 mM potentiator compound and 1.0% DMSO; positive = increased, negative = decreased susceptibility, 1 = no effect
[15] = system: S. maltophilia ATCC 13637; test: Broth microdilution MIC of other antibiotics with potentiator compounds (Example 2); format: cell-based, Stenotrophomonas maltophilia
Procedure: as §10, §6, §7, §8, §11

[16] = system: A. baumannii ATCC 15308; test: as above; format: cell-based, Acinetobacter baumannii; conditions: for Fold increase in bacterial susceptibility to TMP/SMX: Trimethoprim:sulfamethoxazole 1:19, MIC in 1.0% DMSO / MIC with 0.1 mM potentiator compound and 1.0% DMSO
Procedure: as §10, §6, §7, §8, §11

[17] = system: Escherichia coli ATCC 9637; test: Colistin broth microdilution MIC with potentiator compounds (Example 1); format: cell-based; conditions: E. coli ATCC 9637; MIC in the presence of 1.0% DMSO / MIC in the presence of 0.1 mM potentiator compound and 1.0% DMSO; positive = increased, negative = decreased susceptibility, 1 = no effect
[18] = system: Pseudomonas aeruginosa PAO1; test: as above; format: cell-based; conditions: P. aeruginosa PAO1; MIC in the presence of 1.0% DMSO / MIC in the presence of 0.1 mM potentiator compound and 1.0% DMSO; positive = increased, negative = decreased susceptibility, 1 = no effect
[19] = MIC in 1.0% DMSO / MIC with 0.1 mM potentiator compound and 1.0% DMSO
[20] = any of ciprofloxacin, amikacin, levofloxacin, tigecycline, imipenem, TMP/SMX (1:19), 0.1 mM potentiator, 1.0% DMSO, 'none' = no antibiotic potentiated

Row | SMILES | Fold increase in bacterial susceptibility to colistin [1] | Fold increase in bacterial susceptibility to colistin [2] | Fold increase in bacterial susceptibility to colistin [3] | Fold increase in bacterial susceptibility to colistin [4] | Fold increase in bacterial susceptibility to antibiotic indicated [5] | Fold increase in bacterial susceptibility to TMP/SMX [6] | Fold increase in bacterial susceptibility to colistin [7] | Fold increase in bacterial susceptibility to colistin [8] | Fold increase in bacterial susceptibility to colistin [9] | Fold increase in bacterial susceptibility to colistin [10] | Fold increase in bacterial susceptibility to antibiotic indicated [12] | Fold increase in bacterial susceptibility to colistin [13] | Fold increase in bacterial susceptibility to colistin [14] | Fold increase in bacterial susceptibility to Tigecycline [15, 19] | Fold increase in bacterial susceptibility to TMP/SMX [16] | Fold increase in bacterial susceptibility to colistin [17] | Fold increase in bacterial susceptibility to colistin [18] | Fold increase in bacterial susceptibility to antibiotic indicated [11] | further results
1 | O=C(CCCN1C(=O)c2cccc3cccc(c23)C1=O)N1CCN(c2ccccc2O)CC1 [IIA, 2-[4-[4-(2-hydroxyphenyl)piperazin-1-yl]-4-oxobutyl]benzo[de]isoquinoline-1,3-dione] | +2 fold | +2 fold | +4 fold | 1 fold | none | Amikacin (2) TMP/SMX (2) fold | 1 fold | +8 fold | 1 fold | +2 fold | none | -2 fold | +4 fold | Tigecycline (2) fold | Amikacin (2) TMP/SMX (2) fold | +2 fold | 1 fold |  | Fold increase in bacterial susceptibility to Amikacin ([6]; MIC in 1.0% DMSO / MIC with 0.1 mM compound and 1.0% DMSO): Amikacin (2) TMP/SMX (2) fold; Fold increase in bacterial susceptibility to Imipenem [11, 19]: Imipenem (2) fold; Fold increase in bacterial susceptibility to Amikacin [16, 19]: Amikacin (2) TMP/SMX (2) fold
2 | CCOC(=O)c1cc2cc(C(=O)N3CCN(Cc4cccc(C(F)(F)F)c4)CC3)ccc2[nH]1 [IIB, ethyl 5-[4-[[3-(trifluoromethyl)phenyl]methyl]piperazine-1-carbonyl]-1 H-indole-2-carboxylate] | +2 fold | +2 fold | +4 fold | 1 fold | none | TMP/SMX (2) fold | +4 fold | +16 fold | 1 fold | +4 fold | none | 1 fold | >8 fold |  | TMP/SMX (2) fold | +2 fold | +2 fold | none | Fold increase in bacterial susceptibility to antibiotic indicated [15, 20]: none
3 | N#Cc1cccc(CN2CCC(c3cnn(Cc4cccc(C#N)c4)c3)CC2)c1 [IID, 3-[[4-[1-[(3-cyanophenyl)methyl]pyrazol-4-yl]piperidin-1-yl]methyl]-benzonitrile] | +4 fold | 1 fold | +8 fold | 1 fold |  |  | 1 fold | +16 fold | 1 fold | 1 fold |  | 1 fold | +4 fold | Ciprofloxacin (2) Tigecycline (2) fold |  | 1 fold | 1 fold | none | Fold increase in bacterial susceptibility to Ciprofloxacin [15, 19]: Ciprofloxacin (2) Tigecycline (2) fold; Fold increase in bacterial susceptibility to antibiotic indicated [16, 20]: none
4 | O=C(NCC(=O)N1CCN(c2cccc(Cl)c2)CC1)c1cccc(NC(=O)c2cccnc2)c1 [IIC, N-[3-[[2-[4-(3-chlorophenyl)piperazin-1-yl]-2-oxoethyl]carbamoyl]-phenyl]pyridine-3-carboxamide] | +2 fold | +2 fold | +4 fold | 1 fold |  |  | 1 fold | +16 fold | 1 fold | 1 fold |  | 1 fold | +4 fold |  |  | 1 fold | 1 fold |  | 
